What was measured:
Assay in all cases: Cancer cell growth inhibition
Format in all cases: cell-based
NCIH358M = conditions: NCI-H358M; NCIH358M (lung), 72 hr treatment
Description: (§1) The ability of select compounds to inhibit cell growth in various cancer cell lines are evaluated. […] The cell lines shown in Table 2 have reduced growth by at least 50% at 10 uM or lower over 72 hr treatment in growth media. The cell lines shown in Table 3 have reduced growth by at least 50% with an IC50 greater than 10 uM.
(§2) Six 10-fold compound dilutions are prepared in DMSO (e.g. 10 mM, 1 mM, 100 uM, 10 uM, 1 uM, and 0.1 uM). Single data points are acquired for each concentration. The final concentration of DMSO is 0.1%. The duration of the treatment is 72 hr. Growth inhibition is measured using Sulforhodamine B in a protein staining assay. Activity of the agents is determined by evaluation the following parameters: IC50, GI50, IC10, TGI, LC50, IC90, and GI90 (where these values can be calculated).

CACO2 = conditions: Homo sapiens, Caco-2; CACO2 (colon), 72 hr treatment
Description: as §1, §2

SKMEL28 = conditions: Homo sapiens, SK-MEL-28; SKMEL28 (skin), 72 hr treatment
Description: as §1, §2

HT1080 = conditions: Homo sapiens, HT-1080; HT1080 (connective tissue), 72 hr treatment
Description: as §1, §2

HEK293 = conditions: Homo sapiens; HEK293 (kidney), 72 hr treatment
Description: as §1, §2

SKOV3 = conditions: Homo sapiens, SK-OV-3; SKOV3 (ovary), 72 hr treatment
Description: as §1, §2

RD = conditions: Homo sapiens; RD (muscle), 72 hr treatment
Description: as §1, §2

T24 = conditions: Homo sapiens, T-24; T24 (bladder), 72 hr treatment
Description: as §1, §2

SU-DHL-10 = conditions: Homo sapiens, SU-DHL10; SU-DHL-10 (hematological), 72 hr treatment
Description: as §1, §2

PANC1 = conditions: Homo sapiens, PANC-1; PANC1 (pancreas), 72 hr treatment
Description: as §1, §2

MV4-11 = conditions: Homo sapiens; MV4-11 (hematological), 72 hr treatment
Description: as §1, §2

UMUC3 = conditions: Homo sapiens; UMUC3 (bladder), 72 hr treatment
Description: as §1, §2

BT20 = conditions: Homo sapiens, BT-20; BT20 (breast), 72 hr treatment
Description: as §1, §2

PC3 = conditions: Homo sapiens, PC-3; PC3 (prostate), 72 hr treatment
Description: as §1, §2

JIMT1 = conditions: Homo sapiens, JIMT-1; JIMT1 (breast), 72 hr treatment
Description: as §1, §2

J82 = conditions: Homo sapiens; J82 (bladder), 72 hr treatment
Description: as §1, §2

A2780 = conditions: Homo sapiens; A2780 (ovary), 72 hr treatment
Description: as §1, §2

C33A = conditions: Homo sapiens, C-33-A; C33A (endometrial), 72 hr treatment
Description: as §1, §2

A375 = conditions: Homo sapiens, A-375; A375 (skin), 72 hr treatment
Description: as §1, §2

MT3 = conditions: MT-3; MT3 (breast), 72 hr treatment
Description: as §1, §2

SF295 = conditions: Homo sapiens, SF-295; SF295 (brain), 72 hr treatment
Description: as §1, §2

NCIH460 = conditions: Homo sapiens, NCI-H460; NCIH460 (lung), 72 hr treatment
Description: as §1, §2

CALU6 = conditions: Homo sapiens, Calu-6; CALU6 (lung), 72 hr treatment
Description: as §1, §2

MDAMB468 = conditions: Homo sapiens, MDA-MB-468; MDAMB468 (breast), 72 hr treatment
Description: as §1, §2

PBMC = PBMC (hematological), 72 hr treatment
Description: as §1, §2

ACHN = conditions: Homo sapiens; ACHN (kidney), 72 hr treatment
Description: as §1, §2

HCT116 = conditions: Homo sapiens, HCT-116; HCT116 (colon), 72 hr treatment
Description: as §1, §2

SKMEL5 = conditions: Homo sapiens, SK-MEL-5; SKMEL5 (skin), 72 hr treatment
Description: as §1, §2

EFO21 = conditions: Homo sapiens, EFO-21; EFO21 (ovary), 72 hr treatment
Description: as §1, §2

MDAMB231 = conditions: Homo sapiens, MDA-MB-231; MDAMB231 (breast), 72 hr treatment
Description: as §1, §2

LOVO = conditions: Homo sapiens; LOVO (colon), 72 hr treatment
Description: as §1, §2

HL-60 = conditions: Homo sapiens; HL-60 (hematological), 72 hr treatment
Description: as §1, §2

Row | SMILES | IC50 (NCIH358M) | IC50 (CACO2) | IC50 (SKMEL28) | IC50 (HT1080) | IC50 (HEK293) | IC50 (SKOV3) | IC50 (RD) | IC50 (T24) | IC50 (SU-DHL-10) | IC50 (PANC1) | IC50 (MV4-11) | IC50 (UMUC3) | IC50 (BT20) | IC50 (PC3) | IC50 (JIMT1) | IC50 (J82) | IC50 (A2780) | IC50 (C33A) | IC50 (A375) | IC50 (MT3) | also measured
1 | CC(C)(CO)c1cc(-c2csc(-c3ccc(NS(C)(=O)=O)cc3Cl)c2)ccn1 [Compound I-8909, N-(3-chloro-4-(4-(2-(1-hydroxy-2-methylpropan-2-yl)pyridin-4-yl)thiophen-2-yl)phenyl)methanesulfonamide] | < 10 µM | < 10 µM | < 10 µM | < 10 µM | < 10 µM | > 10 µM | > 10 µM | > 10 µM | < 10 µM | < 10 µM | < 10 µM | < 10 µM | > 10 µM | > 10 µM | < 10 µM | < 10 µM | < 10 µM | < 10 µM | > 10 µM | < 10 µM | IC50 (SF295): < 10 µM; IC50 (NCIH460): < 10 µM; IC50 (CALU6): < 10 µM; IC50 (MDAMB468): < 10 µM; IC50 (PBMC): > 10 µM; IC50 (ACHN): < 10 µM; IC50 (HCT116): < 10 µM; IC50 (SKMEL5): < 10 µM; IC50 (EFO21): < 10 µM; IC50 (MDAMB231): > 10 µM; IC50 (LOVO): < 10 µM; IC50 (HL-60): < 10 µM
2 | CC(C)(O)Cc1cc(-c2csc(-c3ccc(NS(C)(=O)=O)cc3Cl)c2)ccn1 [Compound I-9004, N-(3-chloro-4-(4-(2-(2-hydroxy-2-methylpropyl)pyridin-4-yl)thiophen-2-yl)phenyl)methanesulfonamide] | < 10 µM | < 10 µM | < 10 µM | < 10 µM | < 10 µM | > 10 µM | > 10 µM | > 10 µM | < 10 µM | < 10 µM | < 10 µM | < 10 µM | > 10 µM | > 10 µM | < 10 µM | > 10 µM | < 10 µM | < 10 µM | > 10 µM | < 10 µM | IC50 (SF295): < 10 µM; IC50 (NCIH460): < 10 µM; IC50 (CALU6): < 10 µM; IC50 (MDAMB468): < 10 µM; IC50 (PBMC): > 10 µM; IC50 (ACHN): < 10 µM; IC50 (HCT116): < 10 µM; IC50 (SKMEL5): < 10 µM; IC50 (EFO21): < 10 µM; IC50 (MDAMB231): > 10 µM; IC50 (LOVO): < 10 µM; IC50 (HL-60): < 10 µM
3 | CS(=O)(=O)Nc1ccc(-c2cc(-c3ccnc4c3OCCO4)cs2)c(Cl)c1 [Compound I-9017, N-(3-chloro-4-(4-(2,3-dihydro-[1,4]dioxino[2,3-b]pyridin-8-yl)thiophen-2-yl)phenyl)methanesulfonamide] | < 10 µM | < 10 µM | < 10 µM | < 10 µM | < 10 µM | < 10 µM | > 10 µM | < 10 µM | < 10 µM | < 10 µM | < 10 µM | < 10 µM | < 10 µM | > 10 µM | < 10 µM | > 10 µM | < 10 µM | < 10 µM | > 10 µM | < 10 µM | IC50 (SF295): < 10 µM; IC50 (NCIH460): < 10 µM; IC50 (CALU6): < 10 µM; IC50 (MDAMB468): < 10 µM; IC50 (PBMC): > 10 µM; IC50 (ACHN): < 10 µM; IC50 (HCT116): < 10 µM; IC50 (SKMEL5): < 10 µM; IC50 (EFO21): < 10 µM; IC50 (MDAMB231): > 10 µM; IC50 (LOVO): < 10 µM; IC50 (HL-60): < 10 µM

From patent US20220056018A1, “SREBP INHIBITORS COMPRISING A THIOPHENE CENTRAL RING” (Capulus Therapeutics, LLC, priority 2019, published 2022)
